Source: US20260335278A1, “PHYTOCHEMICAL FORMULATIONS FOR TREATING STRESS AND ANXIETY” (GBS GLOBAL BIOPHARMA, INC., priority 2022, published 2026)
Entries after “also recorded” stand apart in the source; their conditions may differ.

Experiments:
zebrafish larvae [1] = assay: Baseline activity / baseline exposure (90 min continuous light), zebrafish larvae; assay type: in vivo; design: key to Baseline Exposure: +: statistically significant increase; −−: statistically significant decrease
Protocol: (§1) The validation process for the phytochemicals derived from Piper methysticum, other Piper plant family members, and non-Piper medicinal plants and fungi includes testing the selected phytochemical drug candidates as singles, doubles, and triples in two complementary zebrafish models of stress and anxiety. These two complementary assays are the Light/Dark Stress Response test that is illustrated in FIG. 5 (after the 90 min study of the effect of the compounds and mixtures on Baseline Activity) and the Thigmotaxis assay, as illustrated in FIG. 61A and FIG. 61B, which is also known as the wall flower effect, like the social anxiety of humans. Zebrafish larvae show a clear and distinct pattern of swimming in response to rapidly alternating light and dark conditions in the Light/Dark Response testing, which trigger a flight or fight response and darting behavior indicative of great stress and anxiety. The Light/Dark testing uses a control group to automatically track, using an automatic tracking device, the larval behavior in response to dark to light conditions. The thigmotaxis assay also uses automatic tracking and appropriate controls. In multiple embodiments additional Zebrafish larvae are given various concentrations of the selected phytochemicals from Table 1 for tracking Light/Dark Responses or Thigmotactic behavioral changes in the treated zebrafish larvae. Table 2A and Table 2B summarize the results from both assays when the individual phytochemicals are exposed to the: Baseline Activity (90 minutes in the light), Light/Dark Stress Response (5 min alternating pulses of dark and light for 30 min.), and Thigmotaxis Activity (% of time in the light center of the chamber (anxiety inducing) versus % of time near the dark (soothing) wall).
(§2) The present invention includes a process to discover new pharmaceutical medicines for the treatment of stress, anxiety and anxiety-related disorders in a human. The preclinical testing included the effects of these 14 individual phytochemicals and 300 ratio-controlled mixtures of these phytochemicals in assays measuring the behavioral stress response patterns of zebrafish larvae. Larval behavior is assessed with at least one functional assay of stress or anxiety following acute exposure to each phytochemical sample formulated. Stereotypical basal activity patterns of zebrafish will be assessed to determine the potential side effects of the phytochemical samples in a concentration dependent manner for each compound on two zebrafish models of stress and anxiety: 1) the Light/Dark Stress Response (5 min alternating pulses of light and dark) in small to med well plates (96-48 well plates), and 2) Thigmotaxis assays in large well plates with 50% of the swimming surface colored dark around the margins of the well in large (24-12 well plates) will be assessed for their efficacy in testing the phytochemicals.
(§3) The discovery methods of the present invention include testing the effects of up to 20 phytochemicals and 40 mixtures of the phytochemicals on behavioral stress response patterns of zebrafish larvae. Larval behavior was assessed with an automated video tracking system following acute exposure to each phytochemical sample. Stereotypical basal activity patterns of larvae were assessed to determine the concentration dependent effect of each compound. A zebrafish model of thigmotaxis in large well plates (24-12 well plates) was assessed for their efficacy in testing the phytochemicals. In the discovery method, fertilized eggs were kept on a re-circulating system in baskets until use at 120 hpf (5 days). At 120 hpf, larvae were loaded into 48 well plates in buffered fish media and acclimated to the plate in a heated light incubator for 2 hours. Larvae were acutely exposed with drug or controls at a 10× concentration and the plate was quickly transferred to a behavioral tracking system. Acute behavioral run was 90 minutes (baseline activity) in the light followed by alternating 5 minute bins (total 2 hours). […]

zebrafish larvae [2] = assay: Zebrafish models of stress and anxiety, overall verdict (Light/Dark Stress Response and thigmotaxis); assay type: in vivo; conditions: for Anti-Anxiety Potential?: API used singly
Protocol: as §1
Additionally, testing is done with mixtures of these same selected phytochemicals from P. methysticum and other plants selected by our in silico analyses. The testing results are analyzed using artificial intelligence systems to rank effectiveness in reducing the Light/Dark response and thigmotactic behavior for the
The A1 enabled drug discovery platform database search data was evaluated to select the best drug candidates from: A Piper methysticum, B. within the Piper plant family (>200 Piper spp.), or C. traditional medicines to begin testing […] (API) singles, doubles, and triples in two complementary zebrafish models of anxiety light/dark startle response testing and thigmotaxis assays.
as §2
The discovery methods of the present invention include testing the effects of up to 20 phytochemicals and 40 mixtures of the phytochemicals on behavioral stress response patterns of zebrafish larvae. Larval behavior was assessed with an automated video tracking system following acute exposure to each phytochemical sample. […]

zebrafish larvae [3] = assay: Thigmotaxis assay; assay type: in vivo; design: key: +: statistically significant increase; −−: statistically significant decrease
Protocol: as §1, §2, §3

[4] = Pharmacokinetics of piperine acting alone; assay type: in vivo
zebrafish larvae [5] = assay: Light/Dark Stress Response (5 min alternating pulses of dark and light for 30 min); assay type: in vivo; design: key to Light/Dark Stress Response: +: statistically significant increase; −−: statistically significant decrease
Protocol: as §1, §2, §3

MAO-B = conditions: cited from earlier work
MAO-A = conditions: cited from earlier work

Row | SMILES | Baseline Exposure (zebrafish larvae [1]; High) | Baseline Exposure (zebrafish larvae [1]; Low) | effect on the baseline activity (zebrafish larvae [1]; acting alone) | Anti-Anxiety Potential? (zebrafish larvae [2]) | Therapeutic Potential (zebrafish larvae [2]; vehicle 1% MeOH) | Thigmotaxis Model (zebrafish larvae [3]; High) | pharmacokinetics [4] | Light/Dark Stress Response (zebrafish larvae [5]; High) | Light/Dark Stress Response (zebrafish larvae [5]; Med) | Light/Dark Stress Response (5 min light/dark pulses) (zebrafish larvae [5]; vehicle 1% MeOH) | Approx. Dose (cell or animal experiments), MAO-B (MAO-B) | Baseline Exposure (zebrafish larvae [1]; Med) | baseline Activity (90 min light) (zebrafish larvae [1]; vehicle 0.5% MeOH) | baseline Activity (90 min light) (zebrafish larvae [1]; vehicle 1% MeOH) | Therapeutic Potential (zebrafish larvae [2]; vehicle 0.5% MeOH) | Approx. Dose (cell or animal experiments), MAO-A (MAO-A) | Light/Dark Stress Response (5 min light/dark pulses) (zebrafish larvae [5]; vehicle 0.5% MeOH) | baseline Activity (90 min light) (zebrafish larvae [1]; vehicle 0.5% MeOH, listed as Dihydromysticin) | baseline Activity (90 min light) (zebrafish larvae [1]; vehicle 1% MeOH, listed as Dihydromysticin) | Thigmotaxis Model (zebrafish larvae [3]; Med)
1 | O=C(/C=C/C=C/c1ccc2c(c1)OCO2)N1CCCCC1 [piperine] | + | −− | virtually no effect on the baseline activity | Yes | YES-top pick | −− | positive results | −− | −− | stress response is reduced |  |  |  |  |  |  |  |  |  | 
2 | COC1=CC(=O)O[C@@H](CCc2ccccc2)C1 [(S)-(+)-7,8-dihydrokavain] | −− | + |  | Yes | No |  |  |  |  | stress response trending down, but high | MAO-B 8.23 μM | −− | baseline activity is close to controls; also recorded: (slight increase initially) | baseline activity levels reduced; also recorded: (evidence of sedation) | No | MAO-A none, | no reduction in stress response |  |  | 
3 | COC1=CC(=O)O[C@@H](CCc2ccc3c(c2)OCO3)C1 [(+)-dihydro methysticin] | −− | + |  | Yes |  | −− |  |  |  | stress response is reduced, but evidence | MAO-B 0.855 μM | −− |  |  | Yes | MAO-A 23.2 μM, | stress response is reduced | baseline activity is close to controls; also recorded: (slight increase initially) | baseline activity levels reduced; also recorded: (evidence of sedation) | −−
4 | COc1cc(/C=C/C(=O)CC(=O)/C=C/c2ccc(O)c(OC)c2)ccc1O [curcumin] | + |  |  | No | No, sedative effect |  |  | −− |  | stress response reduced in highest | 2.55 µM | + |  | baseline activity not like controls; also recorded: (increased at med/high; also recorded: conc., but baseline activity is concerning |  | MAOA 9.01 μM, MAOB |  |  |  | 
5 | COC1=CC(=O)O[C@@H](/C=C/c2ccc3c(c2)OCO3)C1 [R-(+)-methysticin] | −− | + |  | No | No, sedative effect |  |  |  |  | stress response is reduced, but high | MAO-B 0.5 μM |  | baseline activity levels reduced; also recorded: (evidence of sedation) | baseline activity levels reduced; also recorded: (evidence of sedation) | No | MAO-A 8.12 μM, | no reduction in stress response |  |  | 
6 | COc1ccc(/C=C/c2cc(OC)cc(=O)o2)cc1 [yangonin] | + | + |  | Yes | Yes | −− |  | −− |  | stress response is reduced | MAO-B 0.085 μM | + | baseline activity is close to controls; also recorded: (slight increase initially) | baseline activity is close to controls; also recorded: (slight increase initially) | Yes | MAO-A1.29 μM, | stress response is reduced |  |  | −−
